Measured values from patent US20240335401A1, “SUBSTITUTED PHENETHYLAMINE FOR TREATING INFLAMMATION AND PSYCHOLOGICAL DISORDERS” (SYNAPTIVE THERAPEUTICS LLC, priority 2022, published 2024).

Legend:
[1] = taken recreationally; cited from earlier work
[2] = test system: mice; experiment: Signs of hallucination in mice at increasing doses; format: in vivo; conditions: oral, FIG. 3
Procedure: FIG. 3 is a plot of % mice showing sign of hallucination at increasing doses of 2C-B.
(§1) Mice were administered increasing amounts of 2C-B to identify sub-hallucinogenic doses (FIG. 3). It was determined that a dose of 0.025 mg/kg can be orally administered to mice without showing any signs of hallucination. Mice were then administered 2C-B for increasing amounts of time, then placed on the EPM apparatus for 5 minutes and time spent on the open arms obtained. As it can be seen in FIG. 4, the sub-hallucinogenic dose of 2C-B was capable of reducing anxiety in mice.

[3] = test system: mice; experiment: EPM apparatus, time spent on the open arms (anxiety); format: in vivo; conditions: sub-hallucinogenic dose, EPM for 5 minutes, compared to saline, FIG. 4
Procedure: FIG. 4 is a graph showing the time spent on the open arm by mice treated with 2C-B for increasing amounts of time.
as §1

[4] = test system: TNFa in circulation; experiment: LPS-induced inflammatory response in mice, TNFa in circulation; format: in vivo; conditions: mice injected with LPS; subcutaneous administration; FIG. 1
Procedure: FIG. 1 is a graph showing the level of TNF-α in serum of mice injected with LPS to induce inflammation and administered 2C-H or control vehicle.
(§2) In another experiment, mice were also injected with a toxic level of LPS to initiate a lethal septic event, which was attenuated by administration of 2C-H (FIG. 2).

[5] = test system: mice injected with a toxic level of LPS; experiment: Lethal septic event after a toxic level of LPS in mice; format: in vivo; conditions: FIG. 2
Procedure: FIG. 2 is a plot showing % mice that died after injection of a toxic level of LPS when administered 2C-H or vehicle control.
as §2

SMILES	threshold unit dose that can cause psychedelic activity [1]	dose that can be orally administered without showing any signs of hallucination [2] [mg/kg]	time spent on the open arm [3]	inflammatory response (measured by TNFa in circulation) [4]	lethal septic event (% mice that died) [5]
COc1cc(CCN)c(OC)cc1I [2C-I, 2-(4-lodo-2,5-dimethoxyphenyl)ethan-1-amine]	about 2 mg	–	–	–	–
CCc1cc(OC)c(CCN)cc1OC [2C-E, 4-Ethyl-2,5-dimethoxyphenethylamine]	about 2 mg	–	–	–	–
COc1cc(CCN)c(OC)cc1Br [2C-B, 4-Bromo-2,5-dimethoxyphenethylamine]	about 5 mg	0.025	increased time spent on the open arm compared to saline	–	–
COc1ccc(OC)c(CCN)c1 [2C-H]	–	–	–	quickly quelled	attenuated
